According to patent US20080064048A1, “Methods for Selecting Proteins that are Readily Presented as Antigens on Dendritic Cells” (Medical and Biological Laboratories, Co., Ltd., priority 2004, published 2008):
Each block holds one molecule with its values, some of them ahead of it. Where a SMILES comes first, the peptide text is derived from it. The star is where a group is joined. Cbz = O=C(OCc1ccccc1)*

Key:
DC2.4 cells = test: Pulse-chase degradation of cell-bound bOVA (SA beads, SDS-PAGE, Western blot); type: cell-based, mouse; details: for effect of inhibitor on decrease (degradation) of cell-bound bOVA: DC2.4, bOVA 1 h pulse, chase up to 4 h, MG-132 10 μM, lactacystin 2 μM, NH4Cl 50 mM; for effect of ERAD inhibition on degradation of accumulated bOVA: DC2.4, thapsigargin 300 nM, tunicamycin 2 μg
Procedure: Triton X-100 was used to lyse membranes. […] DC2.4 cells were pulsed with bOVA and chased. bOVA was recovered using SA beads, then separated by SDS-PAGE followed by Western blotting using SA-HRP Ctl: a control not containing inhibitors. […] Asterisks in the left panel indicate non-specific binding with SA-HRP.
Next, DC2.4 cells were incubated with bOVA for one hour, and this was then chased for up to four hours. Cell-bound bOVA was recovered from total cell lysates by streptavidin-agarose and separated by SDS-PAGE.
Depletion of Ca^2+ in the ER is known to inhibit ERAD. Thapsigargin (Tg) is known to decrease the Ca^2+ concentration in the ER lumen by binding to the ER membrane and functioning as an ionophore and to inhibit ERA D. Thus, in the presence of Tg, bOVA degradation by ERAD is predicted to be suppressed. DC2.4 cells were pulsed with bOVA in the presence of MG-132, then washed with PBS or with PBS containing 1 mM EGTA, and then chased for four hours.

OT-I CD8+ T cells = test: Antigen presentation level: IL-2 production by OT-I CD8+ T cells (ELISA); type: cell-based, mouse; details: for effect of proteasome inhibitor on stimulation by OVA: DC2.4, OVA 250 μg/mL; for effect of proteasome inhibitor on stimulation by OVA / effect of proteasome inhibitor on stimulation by SIINFEKL peptide: lactastatin 10 μM, MG-132 25 μM; for effect of proteasome inhibitor on stimulation by SIINFEKL peptide: DC2.4, SIINFEKL 10 ng/mL
Description: Whether knock-down of cellular components involved in ERAD decreases the cross-presentation of exogenous OVA antigen was examined using a system for evaluating the level of antigen presentation, which uses naive CD8^+ T cells from OT-I mice and DC2.4 cells. The DC2.4 cells used as a model of dendritic cells are of the H-2 Kb mouse MHC class I haplotype. OT-I (H-2 Kb) mice are transgenic mice expressing a T cell receptor (TCRα and β) that recognizes an antigenic peptide (SIINFEKL) (SEQ ID NO: 15) derived from OVA presented on the H-2 Kb molecules. The CD8^+ cells of OT-I mice are activated when they recognize OVA peptides presented by BMDCs derived from H-2 Kb mice or by DC2.4 cells. When OVA or bOVA is incubated with and affixed onto DC2.4 cells and the cells are further incubated with naive CD8^+ T cells of OT-I mice, the amount of IL-2 produced by OT-I CD8^+ T cells serves as an index of T-cell stimulation as a result of OVA antigen presented by DC2.4 cells.
Parental or knocked-down DC2.4 cells were pre-incubated in a culture medium supplemented with 50 μg mL^−1 polymyxin B for 30 minutes in the presence or absence of lactacystin or MG-132, and incubated with OVA (250 μg mL^−1) or SIINFEKL (SEQ ID NO: 15) peptides (10 ng mL^−1) for six hours. The cells were washed, fixed with 1% paraformaldehyde, and aliquoted into microtiter plates (5×10^4 per well). 5×10^4 CD8^+ T cells purified from splenocytes of OT-1 mice using magnetic beads were added to each well and after a 24-hour incubation, the IL-2 secretion was measured by ELISA (BD Biosciences) in triplicate. […]

[1] = biological target: OVA-derived antigenic peptide SIINFEKL presented on H-2 Kb on DC2.4 cells (chicken; mouse) (UniProt P01887); test: cell-based or functional assay
OT-II CD4+ T cells = test: MHC class II antigen presentation: IL-2 production by OT-II CD4+ T cells; type: cell-based, mouse
Procedure: DC2.4 cells pretreated in the presence of NH4Cl were cultured with OVA, and then the stimulation of OT-I CD8^+ T cells in response to MHC […] presentation (circles) and stimulation of OT-II CD4^+ T cells in response to MHC class II antigen presentation (triangles) was determined by measuring IL-2 production levels. IL-2 production level in the presence of NH4Cl was expressed as a ratio relative to the control (IL-2 production was 700 pg/mL relative to OT-I, and 20 pg/mL relative to OT-II).

TAP1 = biological target: T1, TAP1 (mouse, UniProt P21958 1-724); test: co-immunoprecipitation with anti-TAP1 from DC2.4 lysate, SA-HRP blot
T1 construct: Endogenous protein; also called TAP1/2
T1 sequence (looked up): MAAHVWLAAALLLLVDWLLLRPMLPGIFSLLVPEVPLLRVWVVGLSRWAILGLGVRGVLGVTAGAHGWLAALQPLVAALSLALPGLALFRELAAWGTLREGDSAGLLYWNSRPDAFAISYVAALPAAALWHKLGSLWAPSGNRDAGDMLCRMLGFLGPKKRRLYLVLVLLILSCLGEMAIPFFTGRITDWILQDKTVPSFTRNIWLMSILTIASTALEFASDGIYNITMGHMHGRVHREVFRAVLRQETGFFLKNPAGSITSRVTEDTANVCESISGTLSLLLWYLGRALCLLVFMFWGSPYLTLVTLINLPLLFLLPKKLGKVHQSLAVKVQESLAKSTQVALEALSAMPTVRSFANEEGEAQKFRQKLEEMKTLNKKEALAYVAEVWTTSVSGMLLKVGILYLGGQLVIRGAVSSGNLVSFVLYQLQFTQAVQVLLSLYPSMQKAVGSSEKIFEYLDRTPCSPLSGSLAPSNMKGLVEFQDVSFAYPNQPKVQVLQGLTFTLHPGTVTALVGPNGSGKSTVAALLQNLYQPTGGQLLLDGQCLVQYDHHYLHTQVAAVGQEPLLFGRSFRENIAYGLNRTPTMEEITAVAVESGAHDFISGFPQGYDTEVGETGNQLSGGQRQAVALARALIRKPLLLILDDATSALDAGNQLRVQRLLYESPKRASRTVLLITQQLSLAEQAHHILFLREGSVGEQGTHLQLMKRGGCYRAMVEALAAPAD
Procedure: (§1) DC2.4 cells were incubated with bOVA and subjected to co-immunoprecipitation with anti-Sec61α. bOVA was added at 2.5 mg mL⁻¹ to cell lysates before immunoprecipitation (the two left-hand lanes in each panel). After SDS-PAGE, blotting was performed using SA-HRP and anti-Sec61α antibody.
(§2) 2×10⁷ DC2.4 or BMDC cells were cultured for four hours in a medium containing 10 μM MG-132 in the presence of bOVA at 250 μg mL⁻¹. Cells were lysed in 20 mM HEPES pH7.6 containing 1% digitonin and protease inhibitors to collect biotin-labeled samples. The samples were cleared of impurities in advance using protein G sepharose (Amersham Pharmacia Biotech), and after incubation with antibodies for precipitation (anti-Sec61β, anti Sec61α, anti-VCP, anti-BiP, anti-PDI, anti-calreticulin, anti-TAP1, and anti-TAP2), the immunoprecipitates were collected using protein G. When chicken anti-CHIP antibody was used, immunoprecipitates were collected using a rabbit anti-IgY column (a person, MBL). The precipitated samples were analyzed by SDS-PAGE and Western blotting.

TAP2 = biological target: T2, TAP2 (mouse, UniProt P36371 1-702); test: co-immunoprecipitation with anti-TAP2 from DC2.4 lysate, SA-HRP blot
T2 construct: Endogenous protein; also called TAP1/2
T2 sequence (looked up): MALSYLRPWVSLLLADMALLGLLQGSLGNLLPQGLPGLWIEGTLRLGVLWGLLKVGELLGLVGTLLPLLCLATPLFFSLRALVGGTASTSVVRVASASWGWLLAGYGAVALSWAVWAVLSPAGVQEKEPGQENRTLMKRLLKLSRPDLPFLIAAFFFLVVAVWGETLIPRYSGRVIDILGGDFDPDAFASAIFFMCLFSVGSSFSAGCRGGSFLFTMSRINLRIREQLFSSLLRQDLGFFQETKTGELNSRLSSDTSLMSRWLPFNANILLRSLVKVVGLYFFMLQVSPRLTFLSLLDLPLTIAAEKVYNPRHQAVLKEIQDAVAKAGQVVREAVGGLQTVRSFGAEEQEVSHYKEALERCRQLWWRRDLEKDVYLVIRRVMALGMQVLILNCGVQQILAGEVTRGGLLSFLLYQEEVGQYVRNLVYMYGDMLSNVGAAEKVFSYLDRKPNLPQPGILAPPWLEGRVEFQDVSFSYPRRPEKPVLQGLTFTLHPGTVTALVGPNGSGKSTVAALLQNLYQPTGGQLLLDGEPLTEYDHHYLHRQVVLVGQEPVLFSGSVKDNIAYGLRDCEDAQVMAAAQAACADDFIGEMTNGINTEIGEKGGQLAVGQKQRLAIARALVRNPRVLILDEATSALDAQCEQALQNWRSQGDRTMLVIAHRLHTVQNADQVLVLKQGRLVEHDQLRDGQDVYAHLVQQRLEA
Procedure: as §1, §2

[2] = DC2.4 pretreated with NH4Cl, cultured with OVA
[3] = control without NH4Cl, DC2.4 cultured with OVA

Molecule: CC(C)C[C@@H](C=O)NC(=O)[C@H](CC(C)C)NC(=O)[C@H](CC(C)C)NC(=O)OCc1ccccc1 [MG-132, reference compound] (Cbz-Leu-Leu-Leu-aldehyde)
effect of inhibitor on decrease (degradation) of cell-bound bOVA (DC2.4 cells): blocked
effect of proteasome inhibitor on stimulation by OVA (OT-I CD8+ T cells): suppressed
effect of proteasome inhibitor on stimulation by SIINFEKL peptide (OT-I CD8+ T cells): did not suppress

IL-2 production level [1]: 700 pg/mL
Molecule: OT-I T cell receptor (TCRα and β) on CD8+ T cells of OT-I mice

Molecule: Cl.N [NH4Cl, Ammonium chloride, reference compound]
effect on presentation of the OVA antigen with MHC class II to OT-II CD4+ cells (OT-II CD4+ T cells; [2]): inhibited
effect of inhibitor on decrease (degradation) of cell-bound bOVA (DC2.4 cells): did not significantly affect
effect on presentation of the OVA antigen with MHC class to OT-I CD8+ T cells (OT-I CD8+ T cells; [2]): did not reduce

Molecule: CC(=O)N[C@@H](CSC(=O)[C@]1([C@@H](O)C(C)C)NC(=O)[C@H](C)[C@@H]1O)C(=O)O [lactacystin, reference compound]
effect of inhibitor on decrease (degradation) of cell-bound bOVA (DC2.4 cells): blocked
effect of proteasome inhibitor on stimulation by OVA (OT-I CD8+ T cells): suppressed
effect of proteasome inhibitor on stimulation by SIINFEKL peptide (OT-I CD8+ T cells): did not suppress

Molecule: tunicamycin
effect of ERAD inhibition on degradation of accumulated bOVA (DC2.4 cells): inhibited

Molecule: C/C=C(/C)C(=O)O[C@H]1C(C)=C2[C@H]([C@@H]1OC(=O)CCCCCCC)[C@@](C)(OC(C)=O)C[C@H](OC(=O)CCC)[C@@]1(O)[C@H]2OC(=O)[C@@]1(C)O [Thapsigargin]
effect of ERAD inhibition on degradation of accumulated bOVA (DC2.4 cells): inhibited

B1: OVA-KDEL: OVA with KDEL (Lys-Asp-Glu-Leu) added to its C-terminus, SEQ ID NO: 14 (protein)
chain: MGSIGAASMEFCFDVFKELKVHHANENIFYCPIAIMSALAMVYLGAKDSTRTQINKVVRFDKLPGFGDSIEAQCGTSVNVHSSLRDILNQITKPNDVYSFSLASRLYAEERYPILPEYLQCVKELYRGGLEPINFQTAADQARELINSWVESQTNGIIRNVLQPSSVDSQTAMVLVNAIVFKGLWEKAFKDEDTQAMPFRVTEQESKPVQMMYQIGLFRVASMASEKMKILELPFASGTMSMLVLLPDEVSGLEQLESIINFEKLTEWTSSNVMEERKIKVYLPRMKMEEKYNLTSVLMAMGITDVFSSSANLSGISSAESLKISQAVHAAHAEINEAGREVVGSAEAGVDAASVSEEFRADHPFLFCIKHIATNAVLFFGRCVSPASAEDYEYPSRSNGTKNNTSQASKDEL
antigen presentation level compared with OVA (OT-I CD8+ T cells; DC2.4, data not shown): stronger

binding result (TAP1): no binding
binding result (TAP2): no binding
B2: biotin-labeled chicken ovalbumin (bOVA) (other, UniProt P01012 2-386, looked up)
chain: GSIGAASMEFCFDVFKELKVHHANENIFYCPIAIMSALAMVYLGAKDSTRTQINKVVRFDKLPGFGDSIEAQCGTSVNVHSSLRDILNQITKPNDVYSFSLASRLYAEERYPILPEYLQCVKELYRGGLEPINFQTAADQARELINSWVESQTNGIIRNVLQPSSVDSQTAMVLVNAIVFKGLWEKAFKDEDTQAMPFRVTEQESKPVQMMYQIGLFRVASMASEKMKILELPFASGTMSMLVLLPDEVSGLEQLESIINFEKLTEWTSSNVMEERKIKVYLPRMKMEEKYNLTSVLMAMGITDVFSSSANLSGISSAESLKISQAVHAAHAEINEAGREVVGSAEAGVDAASVSEEFRADHPFLFCIKHIATNAVLFFGRCVSP
modifications: biotin-labeled (sites not given)
notes: Exogenous antigen added to mouse dendritic cells

B3: Chicken ovalbumin (protein)
chain: B2 chain
notes: Chicken ovalbumin used as an antigen model
IL-2 production by OT-II CD4+ T cells (control) (OT-II CD4+ T cells; [3]): 20 pg/mL
antigenicity for stimulation of CD8+ OT-I T cells (IL-2 production) (OT-I CD8+ T cells; DC2.4, dose-response OVA vs bOVA): equally antigenic
OVA stimulation of OT-I CD8+ T cells by knocked-down DC2.4 cells (OT-I CD8+ T cells; Sec61 (S22), VCP (V41) or CHIP (C4) knocked down): reduction in OVA stimulation
IL-2 production by OT-I CD8+ T cells (OT-I CD8+ T cells; [3]): 700 pg/mL
